Measured values: patent US10501461B2, “Tyrosine amide derivatives as Rho-kinase inhibitors” (CHIESI FARMACEUTICI S.P.A., priority 2017, dated 2019)

Tests used:
Rho kinase 2 (ROCK-II) = Rho kinase 2 (ROCK-II) (Homo sapiens, UniProt O75116); assay: In vitro Rho kinase inhibitory activity assay (ADP-Glo), Rho kinase 2; assay type: biochemical; conditions: 10 μM ATP, 25° C., expressed as range of activity
Outline: (§1)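 Each kinase (ROCK1 or ROCK2) sat with compound for 30 min at 25 °C before 10 μM ATP started a 1 h reaction on 2.5 μM myelin basic protein (Tris pH 7.5, MgCl2, BSA, DTT, 1% DMSO). ADP formed was read by ADP-Glo luminescence. Dose-response IC50s were converted to Ki by Cheng-Prusoff.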

Rho kinase 1 (ROCK-I) = Rho kinase 1 (ROCK-I) (Homo sapiens, UniProt Q13464); assay: In vitro Rho kinase inhibitory activity assay (ADP-Glo), Rho kinase 1; assay type: biochemical; conditions: 10 μM ATP, 25° C., expressed as range of activity
Outline: as §1

Sequence of Rho kinase 2 (ROCK-II) (O75116 whole entry): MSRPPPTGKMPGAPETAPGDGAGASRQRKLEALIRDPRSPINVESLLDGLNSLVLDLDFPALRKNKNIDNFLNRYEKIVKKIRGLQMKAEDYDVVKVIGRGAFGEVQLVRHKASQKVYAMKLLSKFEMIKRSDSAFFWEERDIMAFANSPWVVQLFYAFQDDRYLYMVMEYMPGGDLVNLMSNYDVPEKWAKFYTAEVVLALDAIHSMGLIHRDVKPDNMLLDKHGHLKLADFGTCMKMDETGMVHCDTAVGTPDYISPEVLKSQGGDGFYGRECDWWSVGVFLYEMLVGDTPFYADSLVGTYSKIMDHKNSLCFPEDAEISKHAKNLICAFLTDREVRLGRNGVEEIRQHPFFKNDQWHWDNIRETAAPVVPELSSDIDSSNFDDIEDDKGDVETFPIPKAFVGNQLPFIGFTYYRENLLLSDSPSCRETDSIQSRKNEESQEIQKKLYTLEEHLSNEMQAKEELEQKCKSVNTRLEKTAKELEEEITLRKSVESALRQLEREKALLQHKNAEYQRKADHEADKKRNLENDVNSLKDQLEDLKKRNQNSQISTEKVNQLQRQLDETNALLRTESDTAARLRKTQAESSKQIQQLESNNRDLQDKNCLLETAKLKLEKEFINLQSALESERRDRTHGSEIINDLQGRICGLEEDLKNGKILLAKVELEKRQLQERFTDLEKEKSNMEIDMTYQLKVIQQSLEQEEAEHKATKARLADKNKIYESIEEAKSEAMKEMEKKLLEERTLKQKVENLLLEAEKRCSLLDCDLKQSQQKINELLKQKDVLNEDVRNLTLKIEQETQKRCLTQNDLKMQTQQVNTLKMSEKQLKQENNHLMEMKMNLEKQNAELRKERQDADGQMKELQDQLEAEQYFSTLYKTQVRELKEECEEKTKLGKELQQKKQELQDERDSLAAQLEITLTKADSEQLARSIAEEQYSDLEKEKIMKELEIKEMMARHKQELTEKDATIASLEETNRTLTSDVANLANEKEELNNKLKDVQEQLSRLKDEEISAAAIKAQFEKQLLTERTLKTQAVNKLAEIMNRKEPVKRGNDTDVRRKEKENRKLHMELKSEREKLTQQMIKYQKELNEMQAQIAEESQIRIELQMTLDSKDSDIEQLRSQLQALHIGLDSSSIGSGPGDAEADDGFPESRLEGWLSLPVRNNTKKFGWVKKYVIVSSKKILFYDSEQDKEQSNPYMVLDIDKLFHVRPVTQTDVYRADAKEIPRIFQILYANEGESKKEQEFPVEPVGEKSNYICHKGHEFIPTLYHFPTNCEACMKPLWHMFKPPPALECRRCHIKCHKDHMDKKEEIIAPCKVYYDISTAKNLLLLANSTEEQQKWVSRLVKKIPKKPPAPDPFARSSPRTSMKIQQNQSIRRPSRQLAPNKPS
Sequence of Rho kinase 1 (ROCK-I) (Q13464 whole entry): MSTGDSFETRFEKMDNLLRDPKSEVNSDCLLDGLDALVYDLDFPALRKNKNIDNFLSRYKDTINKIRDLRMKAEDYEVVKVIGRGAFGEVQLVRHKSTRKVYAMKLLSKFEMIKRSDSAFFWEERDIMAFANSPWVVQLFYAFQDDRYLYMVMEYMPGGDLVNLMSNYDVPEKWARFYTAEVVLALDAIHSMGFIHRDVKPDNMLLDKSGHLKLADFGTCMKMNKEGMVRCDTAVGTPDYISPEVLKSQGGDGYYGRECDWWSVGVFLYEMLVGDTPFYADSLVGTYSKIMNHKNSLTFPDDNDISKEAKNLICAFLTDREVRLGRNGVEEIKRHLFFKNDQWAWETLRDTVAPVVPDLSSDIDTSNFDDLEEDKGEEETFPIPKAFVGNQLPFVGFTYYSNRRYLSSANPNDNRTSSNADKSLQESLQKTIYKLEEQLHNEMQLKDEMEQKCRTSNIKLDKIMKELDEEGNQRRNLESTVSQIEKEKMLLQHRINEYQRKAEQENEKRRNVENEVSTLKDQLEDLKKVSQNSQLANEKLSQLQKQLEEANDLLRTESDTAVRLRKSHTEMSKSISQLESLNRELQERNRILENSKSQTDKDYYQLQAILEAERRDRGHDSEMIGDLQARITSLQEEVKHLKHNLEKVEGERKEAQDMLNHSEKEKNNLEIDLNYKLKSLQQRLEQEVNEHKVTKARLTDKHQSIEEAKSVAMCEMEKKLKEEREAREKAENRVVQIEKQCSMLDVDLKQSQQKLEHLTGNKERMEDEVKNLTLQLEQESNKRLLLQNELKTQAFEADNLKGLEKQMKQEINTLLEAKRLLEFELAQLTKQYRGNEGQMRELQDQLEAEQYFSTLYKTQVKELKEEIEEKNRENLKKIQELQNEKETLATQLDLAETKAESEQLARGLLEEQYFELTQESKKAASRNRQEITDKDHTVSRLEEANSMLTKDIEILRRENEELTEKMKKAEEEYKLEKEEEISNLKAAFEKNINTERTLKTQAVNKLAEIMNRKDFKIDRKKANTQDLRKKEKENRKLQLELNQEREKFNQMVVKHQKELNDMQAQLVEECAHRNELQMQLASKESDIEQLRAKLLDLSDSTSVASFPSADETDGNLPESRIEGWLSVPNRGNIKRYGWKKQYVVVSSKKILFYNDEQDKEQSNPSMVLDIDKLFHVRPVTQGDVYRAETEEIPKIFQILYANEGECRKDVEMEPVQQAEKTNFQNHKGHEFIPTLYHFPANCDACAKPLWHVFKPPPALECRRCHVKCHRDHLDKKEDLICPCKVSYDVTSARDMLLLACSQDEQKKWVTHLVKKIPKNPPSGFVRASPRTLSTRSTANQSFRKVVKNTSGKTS

SMILES	Ki (Rho kinase 2 (ROCK-II))	Ki (Rho kinase 1 (ROCK-I))
Cc1cc2c(Oc3ccc(C[C@H](N)C(=O)N4CCN(Cc5ccccc5)CC4)cc3F)ccnc2[nH]1 [Example 86, (S)-2-amino-1-(4-benzylpiperazin-1-yl)-3-(3-fluoro-4-((2-methyl-1H-pyrrolo[2,3-b]pyridin-4-yl)oxy)phenyl)propan-1-one]	> 30 nM	> 30 nM
CN(C)CCNC(=O)[C@H](N)Cc1ccc(Oc2ccnc3[nH]ccc23)cc1 [Example 96, (R)-3-(4-((1H-pyrrolo[2,3-b]pyridin-4-yl)oxy)phenyl)-2-amino-N-(2-(dimethylamino)ethyl)propanamide]	> 30 nM	> 30 nM
N[C@@H](Cc1ccc(Oc2ccnc3[nH]ccc23)cc1)C(=O)NCc1ccccc1 [Example 97, (S)-3-(4-((1H-pyrrolo[2,3-b]pyridin-4-yl)oxy)phenyl)-2-amino-N-benzylpropanamide]	3 to 30 nM	3 to 30 nM
N[C@@H](Cc1ccc(Oc2ccnc3[nH]ccc23)cc1)C(=O)NC1CCOCC1 [Example 99, (S)-3-(4-((1H-pyrrolo[2,3-b]pyridin-4-yl)oxy)phenyl)-2-amino-N-(tetrahydro-2H-pyran-4-yl)propanamide]	3 to 30 nM	3 to 30 nM
Cc1c[nH]c2nccc(Oc3ccc(C[C@@H](N)C(=O)NC4CCCCC4)cc3)c12 [Example 142, (R)-2-amino-N-cyclohexyl-3-(4-((3-methyl-1H-pyrrolo[2,3-b]pyridin-4-yl)oxy)phenyl)propanamide]	3 to 30 nM	3 to 30 nM
Cc1c[nH]c2nccc(Oc3ccc(C[C@H](N)C(=O)N(C)C4CCN(C)CC4)cc3F)c12 [Example 44, (S)-2-amino-3-(3-fluoro-4-((3-methyl-1H-pyrrolo[2,3-b]pyridin-4-yl)oxy)phenyl)-N-methyl-N-(1-methylpiperidin-4-yl)propanamide]	< 3 nM	3 to 30 nM
Cc1c[nH]c2nccc(Oc3ccc(CC(N)C(=O)Nc4ccncc4)cc3F)c12 (stereo not shown) [Example 71, 2-amino-3-(3-fluoro-4-((3-methyl-1H-pyrrolo[2,3-b]pyridin-4-yl)oxy)phenyl)-N-(pyridin-4-yl)propanamide]	< 3 nM	< 3 nM
N[C@@H](Cc1ccc(Oc2ccnc3[nH]ccc23)cc1)C(=O)Nc1nccs1 [Example 105, (S)-3-(4-((1H-pyrrolo[2,3-b]pyridin-4-yl)oxy)phenyl)-2-amino-N-(thiazol-2-yl)propanamide]	3 to 30 nM	3 to 30 nM
Cc1c[nH]c2nccc(Oc3ccc(CC(N)C(=O)N4CCC(c5ccncc5)C4)cc3F)c12 (racemic) [Example 66, 2-amino-3-(3-fluoro-4-((3-methyl-1H-pyrrolo[2,3-b]pyridin-4-yl)oxy)phenyl)-1-(3-(pyridin-4-yl)pyrrolidin-1-yl)propan-1-one]	< 3 nM	< 3 nM
Cc1c[nH]c2nccc(Oc3ccc(C[C@H](N)C(=O)N4CC(CN(C)C)C4)cc3F)c12 [Example 48, (S)-2-amino-1-(3-((dimethylamino)methyl)azetidin-1-yl)-3-(3-fluoro-4-((3-methyl-1H-pyrrolo[2,3-b]pyridin-4-yl)oxy)phenyl)propan-1-one]	< 3 nM	< 3 nM
Cc1c[nH]c2nccc(Oc3ccc(C[C@H](N)C(=O)N4CCN(Cc5cnn(C)c5)CC4)cc3F)c12 [Example 163, (S)-2-amino-3-(3-fluoro-4-((3-methyl-1H-pyrrolo[2,3-b]pyridin-4-yl)oxy)phenyl)-1-(4-((1-methyl-1H-pyrazol-4-yl)methyl)piperazin-1-yl)propan-1-one]	< 3 nM	< 3 nM
Cc1c[nH]c2ncnc(Oc3ccc(C[C@H](N)C(=O)N4CCN(C5CC5)CC4)cc3F)c12 [Example 119, (S)-2-amino-1-(4-cyclopropylpiperazin-1-yl)-3-(3-fluoro-4-((5-methyl-7H-pyrrolo[2,3-d]pyrimidin-4-yl)oxy)phenyl)propan-1-one]	< 3 nM	< 3 nM
COCCCNC(=O)[C@@H](N)Cc1ccc(Oc2ccnc3[nH]cc(C)c23)cc1 [Example 87, (S)-2-amino-N-(3-methoxylpropyl)-3-(4-((3-methyl-1H-pyrrolo[2,3-b]pyridin-4-yl)oxy)phenyl)propanamide]	< 3 nM	< 3 nM
Cc1c[nH]c2nccc(Oc3ccc(CC(N)C(=O)N4CCN(Cc5ccccc5)CC4)cc3F)c12 (single isomer, unassigned) [Example 132A, 2-amino-1-(4-benzylpiperazin-1-yl)-3-(3-fluoro-4-((3-methyl-1H-pyrrolo[2,3-b]pyridin-4-yl)oxy)phenyl)propan-1-one]	< 3 nM	< 3 nM
Cc1c[nH]c2nccc(Oc3ccc(CC(N)C(=O)N4CCn5cncc5C4)cc3F)c12 (stereo not shown) [Example 81, 2-amino-1-(5,6-dihydroimidazo[1,5-a]pyrazin-7(8H)-yl)-3-(3-fluoro-4-((3-methyl-1H-pyrrolo[2,3-b]pyridin-4-yl)oxy)phenyl)propan-1-one]	< 3 nM	< 3 nM
Cc1c[nH]c2nccc(Oc3ccc(C[C@H](N)C(=O)N4CC5(CN(C)C5)C4)cc3F)c12 [Example 3, (S)-2-amino-3-(3-fluoro-4-((3-methyl-1H-pyrrolo[2,3-b]pyridin-4-yl)oxy)phenyl)-1-(6-methyl-2,6-diazaspiro[3.3]heptan-2-yl)propan-1-one]	3 to 30 nM	3 to 30 nM
CC(N)(Cc1ccc(Oc2ccnc3[nH]ccc23)cc1)C(=O)NC1CCCCC1 (stereo not shown) [Example 150, 3-(4-((1H-pyrrolo[2,3-b]pyridin-4-yl)oxy)phenyl)-2-amino-N-cyclohexyl-2-methylpropanamide]	3 to 30 nM	3 to 30 nM
Cc1c[nH]c2nccc(Oc3ccc(C[C@H](N)C(=O)NCC4CCCCC4)cc3)c12 [Example 139, (S)-2-amino-N-(cyclohexylmethyl)-3-(4-((3-methyl-1H-pyrrolo[2,3-b]pyridin-4-yl)oxy)phenyl)propanamide]	< 3 nM	< 3 nM
Cc1c[nH]c2nccc(Oc3ccc(CC(N)C(=O)NCCc4ccccn4)cc3F)c12 (stereo not shown) [Example 69, 2-amino-3-(3-fluoro-4-((3-methyl-1H-pyrrolo[2,3-b]pyridin-4-yl)oxy)phenyl)-N-(2-(pyridin-2-yl)ethyl)propanamide]	< 3 nM	< 3 nM
Cc1c[nH]c2nccc(Oc3ccc(C[C@H](N)C(=O)N4C[C@@H](C)N(Cc5ccccc5)[C@@H](C)C4)cc3F)c12 [Example 26, (S)-2-amino-1-((3S,5R)-4-benzyl-3,5-dimethylpiperazin-1-yl)-3-(3-fluoro-4-((3-methyl-1H-pyrrolo[2,3-b]pyridin-4-yl)oxy)phenyl)propan-1-one]	< 3 nM	< 3 nM

Further lines, results first:

Ki (Rho kinase 2 (ROCK-II))	Ki (Rho kinase 1 (ROCK-I))	SMILES
< 3 nM	< 3 nM	Cc1c[nH]c2ncnc(Oc3ccc(C[C@H](N)C(=O)N4CCN(Cc5ccccc5)CC4)cc3F)c12 [Example 115, (S)-2-amino-1-(4-benzylpiperazin-1-yl)-3-(3-fluoro-4-((5-methyl-7H-pyrrolo[2,3-d]pyrimidin-4-yl)oxy)phenyl)propan-1-one]
< 3 nM	< 3 nM	CNC(=O)c1cccc(CN2CCN(C(=O)[C@@H](N)Cc3ccc(Oc4ccnc5[nH]cc(C)c45)c(F)c3)CC2)c1 [Example 165, (S)-3-((4-(2-amino-3-(3-fluoro-4-((3-methyl-1H-pyrrolo[2,3-b]pyridin-4-yl)oxy)phenyl)propanoyl)piperazin-1-yl)methyl)-N-methylbenzamide]
< 3 nM	< 3 nM	Cc1c[nH]c2nccc(Oc3ccc(C[C@H](N)C(=O)N4CCN(Cc5ccccc5)CC4)cc3)c12 [Example 88, (S)-2-amino-1-(4-benzylpiperazin-1-yl)-3-(4-((3-methyl-1H-pyrrolo[2,3-b]pyridin-4-yl)oxy)phenyl)propan-1-one]
< 3 nM	< 3 nM	Cc1c[nH]c2nccc(Oc3ccc(C[C@H](N)C(=O)NC4(CCO)CCCCC4)cc3F)c12 [Example 36, (S)-2-amino-3-(3-fluoro-4-((3-methyl-1H-pyrrolo[2,3-b]pyridin-4-yl)oxy)phenyl)-N-(1-(2-hydroxyethyl)cyclohexyl)propanamide]
< 3 nM	< 3 nM	N#Cc1c[nH]c2nccc(Oc3ccc(C[C@H](N)C(=O)NC4CCOCC4)cc3)c12 [Example 218, (S)-2-amino-3-(4-((3-cyano-1H-pyrrolo[2,3-b]pyridin-4-yl)oxy)phenyl)-N-(tetrahydro-2H-pyran-4-yl)propanamide]
< 3 nM	< 3 nM	Cc1c[nH]c2nccc(Oc3ccc(C[C@H](N)C(=O)N4CCN(Cc5nccn5C)CC4)cc3F)c12 [Example 156, (S)-2-amino-3-(3-fluoro-4-((3-methyl-1H-pyrrolo[2,3-b]pyridin-4-yl)oxy)phenyl)-1-(4-((1-methyl-1H-imidazol-2-yl)methyl)piperazin-1-yl)propan-l-one]
< 3 nM	< 3 nM	Cc1c[nH]c2nccc(Oc3ccc(C[C@H](N)C(=O)N4C[C@@H]5C[C@H]4CN5C)cc3F)c12 [Example 25, (S)-2-amino-3-(3-fluoro-4-((3-methyl-1H-pyrrolo[2,3-b]pyridin-4-yl)oxy)phenyl)-1-((1S,4S)-5-methyl-2,5-diazabicyclo[2.2,1]heptan-2-yl)propan-1-one]
< 3 nM	3 to 30 nM	N[C@@H](Cc1ccc(Oc2ccnc3[nH]ccc23)c(F)c1)C(=O)Nc1ccccc1 [Example 147, (S)-3-(4-((1H-pyrrolo[2,3-b]pyridin-4-yl)oxy)-3-fluorophenyl)-2-amino-N-phenylpropanamide]
< 3 nM	3 to 30 nM	Cc1c[nH]c2nccc(Oc3ccc(CC(N)C(=O)NCCc4ccncc4)cc3F)c12 (single isomer, unassigned) [Example 57A, 2-amino-3-(3-fluoro-4-((3-methyl-1H-pyrrolo[2,3-b]pyridin-4-yl)oxy)phenyl)-N-(2-(pyridin-4-yl)ethyl)propanamide]
